Where two headings read alike, the source gives them in different places. Values belong to the compound of their own block, whether it stands above or below them. *1 amine or outer side, *2 acyl side, *3 side chain or, on linkers, in order; H or OH if unused. Where a SMILES comes first, the peptide text is derived from it. Bridges are numbered along the chain shown (N, C = ends). [ ]: non-standard residue; d: D form. Biphenyl(4,4'-CH2)2 = c1cc(-c2ccc(C[*:2])cc2)ccc1C[*:1]; Maleimide(3,4-diyl) = O=C1NC(=O)C([*:2])=C1[*:1]; Bpa = N[C@@H](Cc1ccc(C(=O)c2ccccc2)cc1)C(=O)O; Nle = CCCC[C@H](N)C(=O)O
Target: T1, Aurora-A122-403-C290A/C393A (Homo sapiens, UniProt O14965, C290A/C393A)
T1 construct: Human Aurora-A kinase domain 122-403 wild-type or C290A/ C393A mutant; His tag (pET30TEV vector) (N, cleaved yes); made in house; host or cells: E. coli RIL, co-expressed with lambda phosphatase (Aurora-A); tracer by solid phase synthesis
T1 sequence (O14965 122-403 C290A/C393A): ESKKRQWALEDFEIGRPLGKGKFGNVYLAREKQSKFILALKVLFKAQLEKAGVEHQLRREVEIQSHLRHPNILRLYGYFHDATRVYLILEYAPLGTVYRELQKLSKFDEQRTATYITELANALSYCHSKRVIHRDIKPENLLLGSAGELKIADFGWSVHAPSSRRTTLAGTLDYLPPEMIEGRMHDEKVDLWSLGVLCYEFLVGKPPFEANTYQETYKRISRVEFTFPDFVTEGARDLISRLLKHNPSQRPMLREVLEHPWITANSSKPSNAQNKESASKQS
Experiment: Competition FA assay against FAM-Ahx-TACC3 522-536 tracer
Assay type: binding
Protocol: Once completed, the mixtures were transferred into SPPS fritted reaction vessels and washed with H2O (5X, 10 mL, 2 min), DMF (5X, 5mL, 2 min) and DCM (5X, 5 mL, 2 min). The clean resins were dried under vacuum and the cyclic peptides cleaved from the resin following the general procedures described in previous sections. After Et2O precipitation, the crude materials were freeze-dried and redissolved in H2O/MeCN/TFA 90/10/0.1% v/v for preparative HPLC purification.
All disulfide peptide variants (ox) were produced in situ from their free-thiol solid precursors. For this, 2 mg of the pure peptide materials were dissolved in aqueous DMSO 33% v/v to a 10 mM concentration and were left open to air oxidation at room temperature overnight. […]
the peptides were employed for FA competition assays and IC50 evaluation without further additional […]
Fluorescence anisotropy (FA) assays – General information.
All assays were performed using 384-well plates(Greiner Bio-one, UK). […]
produced as described previously.11 All samples were prepared in 25 mM Tris,150 mM NaCl, 5 mM MgCl2, pH= 7.5, unless otherwise stated, and tested in triplicate using an EnVisionTM 2103 MultiLabel plate reader (PerkinElmer; Waltham, MA, USA).The parameters were set as follows: Excitation wavelength = 480 nm (30 nm bandwidth) and emission wavelength = 535 nm (30 nm bandwidth). Measured data were processed and analysed as previously described.12 Specifically, the perpendicular intensity (P) and parallel intensity (S) were subtracted by the control values and used for calculations of intensity and anisotropy using the following Equations 1, 2, 3, 4, and 5:
I= (2PG) + S Eq. (SI − 5)
r = (S − PG) Eq. (SI − 6)
L = r − r௠௜௡ Eq. (SI − 7)
y = (k + x + [FL]) − ඥ(k + x + [FL]2 − 4 ∗ x ∗ [FL]) Eq. (SI − 8)
y = r + r௠௜௡ − r௠௔௫ Eq. (SI − 9)
Where I = total intensity; P = perpendicular intensity; S = parallel intensity; G = instrument factor; r = anisotropy; Lb = ligand bound fraction; λ = change in intensity between bound and unbound states which […]
FA direct binding assays. […]
starting from 700 μM, diluted over 24 points in a 1/2 regime using the FAM-Ahx-labeled peptides at a final fixed concentration of 50 nM per well.
FA competition assays were performed using the same plates and buffer as described above, with the initial […]
14 points in a 1/2 regime. […]
after 4 h of incubation to enable appropriate sample equilibration. To prevent sample oxidation, when sulfhydryl peptides were analyzed DTT was added to the buffer (5 mM). In competition mode, the average anisotropy and the average standard deviation of the values derived from equation SI-6 were calculated and fit to a sigmoidal logistic model (equation SI-9) using Origin 2021. When using peptides for which full […]
For consistency, all the data […]
indicating the corresponding SD. […]

[1] = as E1, free-sulfhydryl (reduced) species, DTT 5 mM in buffer, WT control (+DTT), mean ± SD, n = 3, read-out: IC50 (red)
[2] = as E1, oxidised (disulfide) species made in situ from 10 mM stock in aqueous DMSO 33% v/v, air, overnight, WT control (+DMSO) given the same DMSO incubation, mean ± SD, n = 3, read-out: IC50 (ox)
[3] = as E1, Table S3 (mal): maleimide-constrained species, WT value is an individual replica control assay, mean ± SD, n = 3, SD, read-out: IC50 (mal)

IC50 [1]: ≥ 500 µM
Compound: CC(=O)N[C@@H](CCC(=O)O)C(=O)N[C@@H](CCC(=O)O)C(=O)N[C@@H](CO)C(=O)N[C@@H](Cc1ccccc1)C(=O)N[C@@H](CCCNC(=N)N)C(=O)N[C@@H](CC(=O)O)C(=O)N1CCC[C@H]1C(=O)N[C@@H](C)C(=O)N[C@@H](CCC(=O)O)C(=O)N[C@H](C(=O)N[C@@H](CS)C(=O)NCC(=O)N[C@H](C(=O)N[C@@H](CS)C(=O)N[C@@H](C)C(N)=O)[C@@H](C)O)C(C)C [TACC3 522-536 L532C/G535C (red)] (Ac-EESFRDPAEVCGTCA-NH2)

IC50 [2]: ≥ 500 µM
Compound: CC(=O)N[C@@H](CCC(=O)O)C(=O)N[C@@H](CCC(=O)O)C(=O)N[C@@H](CO)C(=O)N[C@H]1CSSC[C@@H](C(=O)N[C@@H](C)C(=O)N[C@@H](CCC(=O)O)C(=O)N[C@H](C(=O)N[C@@H](CC(C)C)C(=O)NCC(=O)N[C@H](C(=O)NCC(=O)N[C@@H](C)C(N)=O)[C@@H](C)O)C(C)C)NC(=O)[C@H](CC(=O)O)NC(=O)[C@H](CCCNC(=N)N)NC1=O [TACC3 522-536 F525C/P528C (ox)] (Ac-EESCRDCAEVLGTGA-NH2; disulfide 4-7)

IC50 (read-out: IC50): ≥ 300 µM
Compound: CCCC[C@H](NC(=O)[C@H](CCC(=O)O)NC(=O)[C@H](C)NC(=O)[C@@H]1CCCN1C(=O)[C@H](CC(=O)O)NC(=O)[C@H](CCCNC(=N)N)NC(=O)[C@H](Cc1ccccc1)NC(=O)[C@H](CO)NC(=O)[C@H](CCC(=O)O)NC(=O)[C@H](CCC(=O)O)NC(C)=O)C(=O)N[C@@H](CC(C)C)C(=O)NCC(=O)N[C@H](C(=O)NCC(=O)N[C@@H](C)C(N)=O)[C@@H](C)O [TACC3 522-536_V531nL] (Ac-EESFRDPAE[Nle]LGTGA-NH2)

Compound: CC(=O)N[C@@H](CCC(=O)O)C(=O)N[C@@H](CCC(=O)O)C(=O)N[C@@H](CO)C(=O)N[C@@H](Cc1ccc(C(=O)c2ccccc2)cc1)C(=O)N[C@@H](CCCNC(=N)N)C(=O)N[C@@H](CC(=O)O)C(=O)N1CCC[C@H]1C(=O)N[C@@H](C)C(=O)N[C@@H](CCC(=O)O)C(=O)N[C@H](C(=O)N[C@@H](CC(C)C)C(=O)NCC(=O)N[C@H](C(=O)NCC(=O)N[C@@H](C)C(N)=O)[C@@H](C)O)C(C)C [TACC3 522-536_(pBnz) -525F] (Ac-EES[Bpa]RDPAEVLGTGA-NH2)
IC50: ≥ 500 µM

IC50 [1]: ≥ 500 µM
Compound: CC(=O)N[C@@H](CCC(=O)O)C(=O)N[C@@H](CCC(=O)O)C(=O)N[C@@H](CO)C(=O)N[C@@H](CS)C(=O)N[C@@H](CCCNC(=N)N)C(=O)N[C@@H](CC(=O)O)C(=O)N[C@@H](CS)C(=O)N[C@@H](C)C(=O)N[C@@H](CCC(=O)O)C(=O)N[C@H](C(=O)N[C@@H](CC(C)C)C(=O)NCC(=O)N[C@H](C(=O)NCC(=O)N[C@@H](C)C(N)=O)[C@@H](C)O)C(C)C [TACC3 522-536 F525C/P528C (red)] (Ac-EESCRDCAEVLGTGA-NH2)

IC50 [1]: ≥ 500 µM
Compound: CC(=O)N[C@@H](CCC(=O)O)C(=O)N[C@@H](CCC(=O)O)C(=O)N[C@@H](CO)C(=O)N[C@@H](Cc1ccccc1)C(=O)N[C@@H](CCCNC(=N)N)C(=O)N[C@@H](CS)C(=O)N1CCC[C@H]1C(=O)N[C@@H](C)C(=O)N[C@@H](CS)C(=O)N[C@H](C(=O)N[C@@H](CC(C)C)C(=O)NCC(=O)N[C@H](C(=O)NCC(=O)N[C@@H](C)C(N)=O)[C@@H](C)O)C(C)C [TACC3 522-536 D527C/E530C (red)] (Ac-EESFRCPACVLGTGA-NH2)

IC50 [3]: 186 ± 50 µM
Compound: CC(=O)N[C@@H](CCC(=O)O)C(=O)N[C@@H](CCC(=O)O)C(=O)N[C@@H](CO)C(=O)N[C@@H](Cc1ccccc1)C(=O)N[C@@H](CCCNC(=N)N)C(=O)N[C@H]1CSC2=C(SC[C@@H](C(=O)N[C@H](C(=O)N[C@@H](CC(C)C)C(=O)NCC(=O)N[C@H](C(=O)NCC(=O)N[C@@H](C)C(N)=O)[C@@H](C)O)C(C)C)NC(=O)[C@H](C)NC(=O)[C@@H]3CCCN3C1=O)C(=O)NC2=O [TACC3 522-536 D527C/E530C (mal)] (Ac-EESFRCPACVLGTGA-NH2; linker 6-9 via Maleimide(3,4-diyl))

IC50 [2]: ≥ 200 µM
Compound: Ac-LECKEESFCDPAEVL-NH2 (disulfide 3-9 (inferred)) [TACC3 518-532 L520C/R526C (ox), disulfide form of the Cys variant]

IC50 [1]: ≥ 500 µM
Compound: CC(=O)N[C@@H](CCC(=O)O)C(=O)N[C@@H](CS)C(=O)N[C@@H](CO)C(=O)N[C@@H](Cc1ccccc1)C(=O)N[C@@H](CS)C(=O)N[C@@H](CC(=O)O)C(=O)N1CCC[C@H]1C(=O)N[C@@H](C)C(=O)N[C@@H](CCC(=O)O)C(=O)N[C@H](C(=O)N[C@@H](CC(C)C)C(=O)NCC(=O)N[C@H](C(=O)NCC(=O)N[C@@H](C)C(N)=O)[C@@H](C)O)C(C)C [TACC3 522-536 E523C/R526C (red)] (Ac-ECSFCDPAEVLGTGA-NH2)

IC50 (read-out: IC50): ≥ 500 µM
Compound: Ac-EESYRDPAEVLGTGA-NH2 [TACC3 522-536_F525Y]

IC50 (as E1, Table S3 column (Bph): biphenyl-constrained species, WT value is an individual replica control assay, mean ± SD, n = 3, SD, read-out: IC50 (Bph)): 280 ± 32 µM
Compound: CC(=O)N[C@H]1CSCc2ccc(cc2)-c2ccc(cc2)CSC[C@@H](C(=O)N[C@@H](C)C(=O)N[C@@H](CCC(=O)O)C(=O)N[C@H](C(=O)N[C@@H](CC(C)C)C(=O)NCC(=O)N[C@H](C(=O)NCC(=O)N[C@@H](C)C(N)=O)[C@@H](C)O)C(C)C)NC(=O)[C@H](CC(=O)O)NC(=O)[C@H](CCCNC(=N)N)NC(=O)[C@H](Cc2ccccc2)NC(=O)[C@H](CO)NC(=O)[C@H](CCC(=O)O)NC1=O [TACC3 522-536 E522C/P528C (Bph)] (Ac-CESFRDCAEVLGTGA-NH2; linker 1-7 via Biphenyl(4,4'-CH2)2)

IC50 [1]: ≥ 500 µM
Compound: CC(=O)N[C@@H](CCC(=O)O)C(=O)N[C@@H](CCC(=O)O)C(=O)N[C@@H](CO)C(=O)N[C@@H](Cc1ccccc1)C(=O)N[C@@H](CS)C(=O)N[C@@H](CC(=O)O)C(=O)N1CCC[C@H]1C(=O)N[C@@H](C)C(=O)N[C@@H](CCC(=O)O)C(=O)N[C@@H](CS)C(=O)N[C@@H](CC(C)C)C(=O)NCC(=O)N[C@H](C(=O)NCC(=O)N[C@@H](C)C(N)=O)[C@@H](C)O [TACC3 522-536 R526C/V531C (red)] (Ac-EESFCDPAECLGTGA-NH2)

IC50 [3]: 376 ± 28 µM
Compound: CC(=O)N[C@@H](CCC(=O)O)C(=O)N[C@H]1CSC2=C(SC[C@@H](C(=O)N[C@@H](CC(=O)O)C(=O)N3CCC[C@H]3C(=O)N[C@@H](C)C(=O)N[C@@H](CCC(=O)O)C(=O)N[C@H](C(=O)N[C@@H](CC(C)C)C(=O)NCC(=O)N[C@H](C(=O)NCC(=O)N[C@@H](C)C(N)=O)[C@@H](C)O)C(C)C)NC(=O)[C@H](Cc3ccccc3)NC(=O)[C@H](CO)NC1=O)C(=O)NC2=O [TACC3 522-536 E523C/R526C (mal)] (Ac-ECSFCDPAEVLGTGA-NH2; linker 2-5 via Maleimide(3,4-diyl))

IC50 [3]: 412 ± 73 µM
Compound: CC(=O)N[C@@H](CCC(=O)O)C(=O)N[C@@H](CCC(=O)O)C(=O)N[C@@H](CO)C(=O)N[C@@H](Cc1ccccc1)C(=O)N[C@@H](CCCNC(=N)N)C(=O)N[C@@H](CC(=O)O)C(=O)N1CCC[C@H]1C(=O)N[C@@H](C)C(=O)N[C@@H](CCC(=O)O)C(=O)N[C@H]1CSC2=C(SC[C@@H](C(=O)NCC(=O)N[C@@H](C)C(N)=O)NC(=O)CNC(=O)[C@H](CC(C)C)NC1=O)C(=O)NC2=O [TACC3 522-536 V531C/T534C (mal)] (Ac-EESFRDPAECLGCGA-NH2; linker 10-13 via Maleimide(3,4-diyl))

Reference: article PMC11604048, “Constrained TACC3 peptidomimetics for a non-canonical protein–protein interface elucidate allosteric communication in Aurora-A kinase” (Chemical Science, 2024)
